Test results as given in PMC10093686, “Structural insights into acetylated histone ligand recognition by the BDP1 bromodomain of Plasmodium falciparum” (International journal of biological macromolecules, 2022).
“Also recorded” adds a separate entry of the source.

System: PfBDP1-BRD (303–488)
Test: NMR chemical shift perturbation (2D 15N-1H HSQC) titration with histone peptides
Type: binding, Plasmodium falciparum
Conditions: 0.3–0.5 mM 15N-labeled PfBDP1-BRD (303–488); 20 mM Tris-HCl pH 6.8, 150 mM NaCl, 10 mM DTT, 10% D2O; molar ratios 1:0, 1:0.5, 1:1, 1:2.5, 1:5; 25°C; result in words
Procedure: Chemical shift perturbation experiments were performed using 0.3–0.5 mM of uniformly ^15N-labeled PfBDP1-BRD (303–488) in NMR buffer containing 20 mM Tris-HCl pH 6.8, 150 mM NaCl, 10 mM DTT and 10% D2O. […] Two-dimensional ^15N−^1H HSQC (heteronuclear single quantum coherence) experiments for all samples were acquired on Bruker Avance III spectrometer equipped with a cryogenic 1.7 mm probe. The temperature of the samples was regulated at 25°C throughout data collection. All spectra were processed using TopSpin (Bruker) as described previously and analyzed using NMRFAM-SPARKY [48].

Row | Substance | Chemical shift perturbations (CSPs) of PfBDP1-BRD backbone amide peaks upon addition of peptide
1 | ARTKQTAR(Kac)STGGKAPRKQLATKA [H3K9ac, histone H3 peptide (1–24) mono-acetylated at lysine 9] | did not observe any CSPs
2 | MEVPGVIGG(Kac)VGGKVGGKVLGLG [H2A.ZK11ac, histone H2A.Z peptide mono-acetylated at K11] | absence of CSPs

Biological target: PfBDP1-BRD (P. falciparum Bromodomain Protein 1 bromodomain)
Test: ITC binding assay of PfBDP1-BRD with histone peptides
Design: species or system Plasmodium falciparum
Conditions: 5°C, 20 mM sodium phosphate pH 7.5, 150 mM NaCl, 1 mM TCEP, protein (303–488 or 333–456) 100–200 μM in cell, peptide 2.5–5.0 mM in syringe, 1:1 binding model, mean ± SD of three runs, non-binding ligands in duplicate
Procedure: Isothermal titration calorimetry (ITC) experiments were carried out using a MicroCal PEAQ-ITC and a MicroCal iTC200 (Malvern Panalytical). The purified PfBDP1-BRD proteins (containing residues 303–488 or 333–456) were dialyzed for 48 h at 4°C into ITC buffer containing 20 mM sodium phosphate buffer pH 7.5, 150 mM NaCl, and 1 mM TCEP. The dialyzed PfBDP1-BRD (303–488 or 333–456) proteins were added to the sample cell at concentrations of 100–200 μM, and between 2.5 and 5.0 mM of each histone peptide in the ITC dialysis buffer was placed in the injection syringe. A total of 20 injections were carried out, with the parameters set as follows. […] The remaining 19 injections were completed with an injection volume of 2 μL, a reaction time of 4 s, and a 150 s spacing time between each injection. All ITC runs were carried out at 5°C with a differential power (DP) value of 10, the feedback set to high, at a stirring speed of 750 RPM, and with an initial delay for the reaction set to 60 s.
The ITC data obtained were analyzed using the MicroCal PEAQ-ITC 200 analysis software provided with the instrument (Malvern Panalytical). The heat of dilutions for the buffer and peptide ligands were obtained from titrating buffer into buffer, buffer into PfBDP1-BRD protein (303–488 and 333–456), and histone peptide into buffer. The heats of dilution for the histone peptides were subtracted from the raw isotherms obtained from the histone peptide and PfBDP1-BRD (303–488 and 333–456) protein titrations. The first injection was discarded from the data analysis, and the data was integrated using a 1:1 binding model assuming a single set of identical binding sites. A Marquandt nonlinear least-squares analysis was used to calculate the binding affinities and N values from the normalized heat changes. Binding experiments were repeated in triplicate for each ligand and the mean KD was calculated from the average of the three runs, with the standard deviation coming from the mean.

Row | Substance | PfBDP1-BRD KD
3 | ARTKQTAR(Kac)STGGKAPRKQLATKA [H3K9ac, histone H3 peptide (1–24) mono-acetylated at lysine 9] | did not observe any interaction; also recorded: No Binding
4 | MEVPGVIGG(Kac)VGGKVGGKVLGLG [H2A.ZK11ac, histone H2A.Z peptide mono-acetylated at K11] | No Binding
5 | MEVPGVIGGKVGG(Kac)VGGKVLGLG [H2A.ZK15ac, histone H2A.Z peptide mono-acetylated at K15] | No Binding
6 | MEVPGVIGGKVGGKVGG(Kac)VLGLG [H2A.ZK19ac, histone H2A.Z peptide mono-acetylated at K19] | No Binding
7 | MEVPGVIGGKVGGKVGGKVLGLG [H2A.Z unmodified, unmodified P. falciparum histone variant H2A.Z peptide] | No Binding
8 | SG(Kac)GPAQKSQAAKKTAGKTLGPR [H2B.ZK3ac, histone H2B.Z peptide mono-acetylated at K3] | No Binding
9 | SGKGPAQ(Kac)SQAAKKTAGKTLGPR [H2B.ZK8ac, histone H2B.Z peptide mono-acetylated at K8] | No Binding
10 | SGKGPAQKSQAA(Kac)KTAGKTLGPR [H2B.ZK13ac, histone H2B.Z peptide mono-acetylated at K13] | No Binding
11 | SGKGPAQKSQAAK(Kac)TAGKTLGPR [H2B.ZK14ac, histone H2B.Z peptide mono-acetylated at K14] | No Binding
12 | SGKGPAQKSQAAKKTAG(Kac)TLGPR [H2B.ZK18ac, histone H2B.Z peptide mono-acetylated at K18] | No Binding
13 | SGKGPAQKSQAAKKTAGKTLGPR [H2B.Z unmodified, unmodified P. falciparum histone variant H2B.Z peptide] | No Binding
14 | SGRGKGG(Kac)GLGKGGAKRHRKVLRD [H4K8ac, histone H4 peptide (1–24) mono-acetylated at K8] | No Binding
